Measured values as given in article PMC6934184, “Selective DNA-PKcs inhibition extends the therapeutic index of localized radiotherapy and chemotherapy” (The Journal of Clinical Investigation, 2019).

Target: T1, NEK1 (Homo sapiens, UniProt Q96PY6)
T1 construct: purchased Thermo Fisher Scientific (Life Technologies) SelectScreen
Test: SelectScreen Z'LYTE
Type: biochemical
Method in brief: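 Percent values come from Thermo SelectScreen profiling of NU5455, combining activity and binding assays. CSF1R was run in Z'LYTE format at Km app ATP, and CAMK1 in Adapta format with ATP listed at 10.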

T1 sequence (Q96PY6 whole entry): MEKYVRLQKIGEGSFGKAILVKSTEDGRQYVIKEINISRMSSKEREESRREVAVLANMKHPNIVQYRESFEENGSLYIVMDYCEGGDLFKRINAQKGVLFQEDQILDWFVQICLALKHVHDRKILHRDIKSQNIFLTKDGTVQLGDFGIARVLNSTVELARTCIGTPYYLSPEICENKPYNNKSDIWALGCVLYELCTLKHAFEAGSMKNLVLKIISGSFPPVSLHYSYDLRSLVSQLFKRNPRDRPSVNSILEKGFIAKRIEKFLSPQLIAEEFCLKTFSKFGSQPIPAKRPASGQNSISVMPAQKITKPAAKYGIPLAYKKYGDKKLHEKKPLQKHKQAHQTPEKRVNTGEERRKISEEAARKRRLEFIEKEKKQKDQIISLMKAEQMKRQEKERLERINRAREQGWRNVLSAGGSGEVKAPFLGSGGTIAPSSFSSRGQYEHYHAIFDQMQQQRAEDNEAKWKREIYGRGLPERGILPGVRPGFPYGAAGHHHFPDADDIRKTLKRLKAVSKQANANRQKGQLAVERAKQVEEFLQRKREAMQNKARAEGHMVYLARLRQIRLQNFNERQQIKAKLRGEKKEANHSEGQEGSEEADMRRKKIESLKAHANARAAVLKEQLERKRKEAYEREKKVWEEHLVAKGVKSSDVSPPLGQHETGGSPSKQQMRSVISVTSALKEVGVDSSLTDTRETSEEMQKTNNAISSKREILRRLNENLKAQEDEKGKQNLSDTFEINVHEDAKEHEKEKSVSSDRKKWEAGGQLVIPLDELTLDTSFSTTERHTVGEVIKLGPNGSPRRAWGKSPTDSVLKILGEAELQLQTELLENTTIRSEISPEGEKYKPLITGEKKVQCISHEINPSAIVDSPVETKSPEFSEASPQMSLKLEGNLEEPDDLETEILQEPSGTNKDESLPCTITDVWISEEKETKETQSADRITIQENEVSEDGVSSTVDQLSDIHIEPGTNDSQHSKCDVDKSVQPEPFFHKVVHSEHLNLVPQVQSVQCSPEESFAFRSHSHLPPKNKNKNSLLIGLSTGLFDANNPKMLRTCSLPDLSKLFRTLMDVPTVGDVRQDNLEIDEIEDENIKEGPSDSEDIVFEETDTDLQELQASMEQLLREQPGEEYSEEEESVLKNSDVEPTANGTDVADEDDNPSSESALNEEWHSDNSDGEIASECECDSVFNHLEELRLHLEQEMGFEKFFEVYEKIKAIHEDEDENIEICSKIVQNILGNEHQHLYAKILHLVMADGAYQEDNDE

CN(C(=O)CN1CCOCC1)c1ccc2sc3c(-c4cccc5c(=O)cc(N6CC7CCC(C6)O7)oc45)cccc3c2c1 [NU5455]
inhibition at 1 µM: 12.9%
